Data taken from patent US20230241083A1, “FORMULATION COMPRISING CANNABINOIDS” (CANNOVEX BV, priority 2020, published 2023).

Assay: Stability study of THC in a receiver solution
Type: physicochemical
Settings: receiver solution EtOH:H2O (50/50 vol); 3, 6, 8, 24, 30, 48 hours
Source text: FIG. 2: Stability study of THC in a receiver solution.

## CCCCCc1cc(O)c2c(c1)OC(C)(C)[C@@H]1CCC(C)=C[C@@H]21 [THC, Delta-9-tetrahydrocannabinol]
  THC concentration over time in receiver solution (stability): does not decay over time
